Data as given in patent US20080171773A1, “FACTOR Xa INHIBITOR” (Pfizer Inc, priority 2006, published 2008).

Molecular target: T1, human factor Xa (Homo sapiens, UniProt P00742)
T1 construct: factor Xa, a serine protease that occupies a pivotal position in the coagulation cascade
Assay: Factor Xa inhibitory activity: inhibition of human factor Xa cleavage of substrate S-2765
Format: biochemical
Conditions: 30 pM human factor Xa, substrate S-2765 at its Km, pH 7.4, 37° C.; mean of replicates (SD, SEM and n in separate columns)
Protocol: The ability of compounds to act as inhibitors of human factor Xa catalytic activity can be assessed by determination of the concentration of test substance that inhibits by 50% (IC50) the ability of human factor Xa to cleave the chromogenic substrate S2765 (N-CBz-D-Arg-L-Gly-L-Arg-p-nitroanilide. 2HCl).
The assay was performed in triplicate using a final concentration of 30 pM of human factor Xa (diluted in buffer containing 10 mM HEPES, 150 mM NaCl, 0.1% bovine serum albumin (BSA), pH 7.4). The substrate, S-2765 (N-CBz-D-Arg-L-Gly-L-Arg-p-nitroanilide, 2HCl), was run at a final concentration equal to its Km value. The (R) enantiomer was serially diluted in 100% DMSO (final assay concentration=2% DMSO) to final concentrations of 1.0 μM to […]. Dilutions were transferred to a black polystyrene 96-plate microtiter assay plate at a volume of 2.5 μL/well. […] The reactions were initiated by the addition of 50 μL of pre-warmed substrate and immediately placed in the microplate reader pre-warmed at 37° C.
A fluorometric plate reader was used to continuously monitor the rate of change in relative fluorescence units (RFUS) per unit time. The assay plate was mixed once before reading. The fluorogenic emission was read every 44 seconds for 30 minutes (excitation/emission of λex=390 nm and λex=460 nm; automatic cutoff=455 nm) at 37° C.

T1 sequence (P00742 235-488 limits assumed): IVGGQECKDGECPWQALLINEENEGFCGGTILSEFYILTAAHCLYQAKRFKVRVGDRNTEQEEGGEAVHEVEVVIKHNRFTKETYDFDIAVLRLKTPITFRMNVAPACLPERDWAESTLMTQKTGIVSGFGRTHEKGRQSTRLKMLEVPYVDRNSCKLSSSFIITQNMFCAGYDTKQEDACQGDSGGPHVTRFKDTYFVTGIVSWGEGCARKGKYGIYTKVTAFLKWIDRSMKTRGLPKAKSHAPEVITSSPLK
T1 sequence (P00742 41-179 partner limits assumed): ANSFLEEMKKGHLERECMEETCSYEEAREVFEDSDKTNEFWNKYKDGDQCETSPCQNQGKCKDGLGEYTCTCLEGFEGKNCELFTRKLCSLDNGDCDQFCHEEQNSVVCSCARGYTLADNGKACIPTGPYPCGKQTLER

SMILES | IC50
C[C@]1(C(=O)Nc2ccc(-n3ccccc3=O)cc2F)CC=NN1C(=O)Nc1ccc(Cl)cc1 [(R) enantiomer, (R)-5-Methyl-4,5-dihydro-pyrazole-1,5-dicarboxylic acid 1-[(4-chloro-phenyl)-amide] 5-{[2-fluoro-4-(2-oxo-2H-pyridin-1-yl)-phenyl]-amide}] | 0.982 nM
C[C@@]1(C(=O)Nc2ccc(-n3ccccc3=O)cc2F)CC=NN1C(=O)Nc1ccc(Cl)cc1 [(S) enantiomer, (S)-5-Methyl-4,5-dihydro-pyrazole-1,5-dicarboxylic acid 1-[(4-chloro-phenyl)-amide] 5-{[2-fluoro-4-(2-oxo-2H-pyridin-1-yl)-phenyl]-amide}] | 141 nM
